The source of these data is ChEMBL document CHEMBL5385927, “Chemical and Antiplasmodial Investigations on Eremophila-Derived Alkaloids and Semisynthetic Ether Analogues” (J Nat Prod, 2024).

The test system of data set [1] is Plasmodium falciparum. Put plainly: Antiplasmodial activity against choloroquine-sensitive ring stage of Plasmodium falciparum 3D7 assessed as inhibition of parasite growth measured after 72 hrs by DAPI staining based analysis. Conditions: 3D7, 72 h. It is filed as functional, organism-based.
A short description of data set [2]: Cytotoxicity against human HEK293 cells assessed as inhibition of cell viability at 80 uM measured after 66 hrs by Alamar Blue dye based fluorescence analysis. It is filed as toxicity. Conditions: read-out: INH. In general terms: Alamar Blue is a resazurin reagent that responds to reducing activity.
Data set [3] is described as follows: Cytotoxicity against human HEK293 cells assessed as inhibition of cell viability measured after 66 hrs by Alamar Blue dye based fluorescence analysis. It is filed as toxicity.
The subject of data set [4] is Plasmodium falciparum. Put plainly: Antiplasmodial activity against choloroquine-sensitive ring stage of Plasmodium falciparum 3D7 assessed as inhibition of parasite growth at 40 uM measured after 72 hrs by DAPI staining based analysis. The class given is functional.

Molecules are shown by their SMILES.

The IC50 is the concentration that gives 50% inhibition. As for `CC(C)=CCCc1cnc2c(C)cc(O)c3c2c1CC[C@H]3C`, the concentration for half-maximal inhibition (IC50) in data set [1] is 8.9 µM. Besides, in data set [2], the cytotoxicity at 66 h, 80 µM is 92%.
`CC(C)=CCCc1cnc2c(C)cc(OCc3ccccc3)c3c2c1CC[C@H]3C`: the IC50 at 66 h in data set [3] turned out to be 30.8 µM. Also, the 50% inhibitory concentration (IC50) in data set [1] was determined as 7.6 µM.
By inhibition is commonly meant the percentage by which the read-out fell short of the control. On to `CC(C)=CCCc1cnc2c(C)cc(OC3CCCCC3)c3c2c1CC[C@H]3C`, for which the inhibition at 40 µM in data set [4] stood at 93%. In addition, the cytotoxicity at 66 h, 80 µM in data set [2] is 23%.
Consider `C=CCOc1cc(C)c2ncc(CCC=C(C)C)c3c2c1[C@H](C)CC3`, for which the half-inhibitory concentration (IC50) in data set [1] was 13.1 µM. Besides, the cytotoxicity at 66 h, 80 µM in data set [2] came to 85%.
Regarding `CC(C)=CCCc1cnc2c(C)cc(OCc3cccc([N+](=O)[O-])c3)c3c2c1CC[C@H]3C`, the IC50 in data set [1] was found to be 13.1 µM. Moreover, in data set [2], the cytotoxicity at 66 h, 80 µM was found to be 7%.
Turning to `CC(C)=CCCc1cnc2c(C)cc(OCc3ccccc3-c3ccccc3)c3c2c1CC[C@H]3C`, in data set [1], the IC50 was 8 µM. Also, the cytotoxicity at 66 h, 80 µM in data set [2] turned out to be 94%.
As to `CC(C)=CCCc1cnc2c(C)cc(O)c3c2c1[C@H](O)C[C@H]3C`, the inhibition at 40 µM in data set [4] was 78%. In data set [2], the cytotoxicity at 66 h, 80 µM was found to be 14%.
For the molecule `CC(C)=CCCc1cnc2c(C)cc(OCc3cccc(Cl)c3)c3c2c1CC[C@H]3C`, the half-maximal inhibitory concentration (IC50) in data set [1] came to 11 µM. In addition, the cytotoxicity at 66 h, 80 µM in data set [2] was found to be 65%.
Regarding `CC(C)=CCCc1cnc2c(C)cc(OCc3ccc(Br)cc3)c3c2c1CC[C@H]3C`, the IC50 at 66 h in data set [3] came out at 40.7 µM. In addition, in data set [1], the IC50 worked out at 9.7 µM.
For the molecule `CC(C)=CCCc1cnc2c(C)cc(OCc3cccc(Br)c3)c3c2c1CC[C@H]3C`, in data set [3], the half-maximal inhibitory concentration (IC50) at 66 h amounted to 39.3 µM. In data set [1], the concentration for half-maximal inhibition (IC50) is 7.2 µM.
With `CC(C)=CCCc1cnc2c(C)cc(OC3CCCC3)c3c2c1CC[C@H]3C`, the half-inhibitory concentration (IC50) in data set [1] came out at 12.5 µM. Moreover, the cytotoxicity at 66 h, 80 µM in data set [2] amounted to 83%.
`CC(C)=CCCc1cnc2c(C)cc(OCc3cc(F)ccc3F)c3c2c1CC[C@H]3C`: the concentration for half-maximal inhibition (IC50) at 66 h in data set [3] was 31.4 µM. In data set [1], the concentration for half-maximal inhibition (IC50) worked out at 8 µM.
Turning to `C[C@H]1[C@@H](O)O[C@@H]2O[C@@]3(C)CC[C@H]4[C@H](C)CC[C@@H]1[C@@]24OO3` [ARTENIMOL], the IC50 in data set [1] is 0.021 µM.
Take `COc1ccc(C[C@H](N)C(=O)N[C@H]2[C@@H](O)[C@H](n3cnc4c(N(C)C)ncnc43)O[C@@H]2CO)cc1` [PUROMYCIN]: the IC50 at 66 h in data set [3] worked out at 0.49 µM. Moreover, the IC50 in data set [1] is 0.033 µM.
